# According to PubChem BioAssay AID180 (DTP/NCI, 2004):
# Several values for one entry are separate records, joined by “and”; a condition that tells them apart may be missing. Equal entries are not always repeated.
# Tested on: BDF1 mice, Adenocarcinoma 755 s.c., tumor weight T/C
# Assay: NCI In Vivo Anticancer Drug Screen. Data for tumor model Adenocarcinoma 755 (subcutaneous) in B6D2F1 (BDF1) mice
# Conditions: endpoint: mean tumor weight, higher = larger tumour
# Summary of the method: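 Compound activity was tested in mice carrying transplanted tumors. Survival or tumor size was measured, and each value is the treated-group measurement divided by that of the vehicle-treated control group (T/C).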
# [1] = dose: 25.0 mg/kg/injection, schedule: Q01DX011 (ip), vehicle: methylcellulose (MC)
# [2] = dose: 75.0 mg/kg/injection, schedule: Q01DX011 (ip), vehicle: methylcellulose (MC)
# [3] = dose: 225.0 mg/kg/injection, schedule: Q01DX011 (ip), vehicle: methylcellulose (MC)
# [4] = dose: 31.0 mg/kg/injection, schedule: Q01DX011 (ip), vehicle: methylcellulose (MC)
# [5] = dose: 62.0 mg/kg/injection, schedule: Q01DX011 (ip), vehicle: methylcellulose (MC)
structure (smiles),measurement,setting,value
NC(N)=N/N=C/c1c(O)ccc2ccccc12,T/C,"dose: 12.5 mg/kg/injection, schedule: Q01DX011 (ip), vehicle: saline",77 % of control
same,T/C,"dose: 25.0 mg/kg/injection, schedule: Q01DX011 (ip), vehicle: saline",67 % of control
same,T/C,"dose: 50.0 mg/kg/injection, schedule: Q01DX011 (ip), vehicle: saline",54 % of control
Cc1ccc(/C=N/Nc2nc3c(c(=O)n(C)c(=O)n3C)n2C)cc1,T/C,[1],77 % of control
same,T/C,[2],60 % of control
same,T/C,[3],39 % of control
C[C@]12CCCC[C@@H]1CC[C@@H]1[C@@H]2[C@@H](O)C[C@]2(C)[C@@H](N)CC[C@@H]12,T/C,"dose: 22.0 mg/kg/injection, schedule: Q01DX011 (sc), vehicle: steriod suspending solution",106 % of control
same,T/C,"dose: 44.0 mg/kg/injection, schedule: Q01DX011 (sc), vehicle: steriod suspending solution",74 % of control
CC(COS(C)(=O)=O)C(=O)N1CCN(C(=O)C(C)COS(C)(=O)=O)CC1 (centres undefined),T/C,"dose: 28.0 mg/kg/injection, schedule: Q01DX011 (ip), vehicle: methylcellulose (MC)",69 % of control
same,T/C,"dose: 57.0 mg/kg/injection, schedule: Q01DX011 (ip), vehicle: methylcellulose (MC)",74 % of control
same,T/C,"dose: 113.0 mg/kg/injection, schedule: Q01DX011 (ip), vehicle: methylcellulose (MC)",73 % of control
same,T/C,[3],69 % of control
N#Cc1cn(Cc2ccco2)c(=O)[nH]c1=O,T/C,"dose: 15.0 mg/kg/injection, schedule: Q01DX011 (ip), vehicle: methylcellulose (MC)",54 % of control
same,T/C,[4],84 % of control
same,T/C,[5],80 % of control
CSc1ncc(Br)c(NCc2ccccc2Cl)n1,T/C,[1],65 % of control
same,T/C,[4],106 % of control
same,T/C,[5],103 % of control
same,T/C,"dose: 125.0 mg/kg/injection, schedule: Q01DX011 (ip), vehicle: methylcellulose (MC)",85 % of control
same,T/C,"dose: 250.0 mg/kg/injection, schedule: Q01DX011 (ip), vehicle: methylcellulose (MC)",80 % of control
Cc1nc(C(N)=O)nc2ccccc12,T/C,"dose: 31.25 mg/kg/injection, schedule: Q01DX011 (ip), vehicle: methylcellulose (MC)",102 % of control
same,T/C,"dose: 50.0 mg/kg/injection, schedule: Q01DX011 (ip), vehicle: carboxymethylcellulose (CMC)",99 % of control
same,T/C,"dose: 100.0 mg/kg/injection, schedule: Q01DX011 (ip), vehicle: carboxymethylcellulose (CMC)",80 % of control
same,T/C,"dose: 200.0 mg/kg/injection, schedule: Q01DX011 (ip), vehicle: carboxymethylcellulose (CMC)",58 % of control
same,T/C,"dose: 400.0 mg/kg/injection, schedule: Q01DX011 (ip), vehicle: carboxymethylcellulose (CMC)",32 % of control
CC(=O)OCC1OC(n2cnc3c(N)ncnc32)C(OC(C)=O)C1OC(C)=O (centres undefined),T/C,"dose: 30.0 mg/kg/injection, schedule: Q01DX011 (ip), vehicle: carboxymethylcellulose (CMC)",150 % of control
same,T/C,"dose: 120.0 mg/kg/injection, schedule: Q01DX011 (ip), vehicle: carboxymethylcellulose (CMC)",113 % of control
same,T/C,"dose: 240.0 mg/kg/injection, schedule: Q01DX011 (ip), vehicle: carboxymethylcellulose (CMC)",103 % of control
O=c1[nH]cc(N(CCCl)CCCl)c(=O)[nH]1,T/C,"dose: 0.17 mg/kg/injection, schedule: Q01DX011 (ip), vehicle: carboxymethylcellulose (CMC)",82 % of control
same,T/C,"dose: 0.21 mg/kg/injection, schedule: Q01DX011 (ip), vehicle: carboxymethylcellulose (CMC)",93 % of control and 94 % of control
same,T/C,"dose: 0.34 mg/kg/injection, schedule: Q01DX011 (ip), vehicle: carboxymethylcellulose (CMC)",86 % of control
same,T/C,"dose: 0.42 mg/kg/injection, schedule: Q01DX011 (ip), vehicle: carboxymethylcellulose (CMC)",53 % of control and 54 % of control
same,T/C,"dose: 0.67 mg/kg/injection, schedule: Q01DX011 (ip), vehicle: carboxymethylcellulose (CMC)",45 % of control
same,T/C,"dose: 0.68 mg/kg/injection, schedule: Q01DX011 (ip), vehicle: carboxymethylcellulose (CMC)",77 % of control and 80 % of control
same,T/C,"dose: 0.83 mg/kg/injection, schedule: Q01DX011 (ip), vehicle: carboxymethylcellulose (CMC)",58 % of control
same,T/C,"dose: 1.11 mg/kg/injection, schedule: Q01DX011 (ip), vehicle: carboxymethylcellulose (CMC)",59 % of control
same,T/C,"dose: 1.13 mg/kg/injection, schedule: Q01DX011 (ip), vehicle: carboxymethylcellulose (CMC)",40 % of control
same,T/C,"dose: 1.35 mg/kg/injection, schedule: Q01DX011 (ip), vehicle: carboxymethylcellulose (CMC)",22 % of control
same,T/C,"dose: 1.67 mg/kg/injection, schedule: Q01DX011 (ip), vehicle: carboxymethylcellulose (CMC)",18 % of control
same,T/C,"dose: 1.69 mg/kg/injection, schedule: Q01DX011 (ip), vehicle: carboxymethylcellulose (CMC)",27 % of control and 28 % of control
CCOC(=O)C(Cc1ccc(N(CCCl)CCCl)cc1)NP1(=O)NCCCO1 (centres undefined),T/C,"dose: 36.0 mg/kg/injection, schedule: Q01DX011 (ip), vehicle: saline",21 % of control
O=P(N1CCCC1)(N1CC1)N1CC1,T/C,"dose: 0.2 mg/kg/injection, schedule: Q01DX011 (ip), vehicle: saline",94 % of control and 75 % of control
same,T/C,"dose: 0.25 mg/kg/injection, schedule: Q01DX011 (ip), vehicle: carboxymethylcellulose (CMC)",110 % of control
same,T/C,"dose: 0.5 mg/kg/injection, schedule: Q01DX011 (ip), vehicle: saline",54 % of control and 79 % of control
same,T/C,"dose: 1.0 mg/kg/injection, schedule: Q01DX011 (ip), vehicle: carboxymethylcellulose (CMC)",42 % of control
same,T/C,"dose: 1.0 mg/kg/injection, schedule: Q01DX011 (ip), vehicle: saline",8 % of control and 21 % of control
same,T/C,"dose: 2.0 mg/kg/injection, schedule: Q01DX011 (ip), vehicle: carboxymethylcellulose (CMC)",46 % of control
same,T/C,"dose: 2.0 mg/kg/injection, schedule: Q01DX011 (ip), vehicle: saline",3 % of control
same,T/C,"dose: 4.0 mg/kg/injection, schedule: Q01DX011 (ip), vehicle: carboxymethylcellulose (CMC)",23 % of control
same,T/C,"dose: 6.0 mg/kg/injection, schedule: Q01DX011 (ip), vehicle: carboxymethylcellulose (CMC)",8 % of control
same,T/C,"dose: 8.0 mg/kg/injection, schedule: Q01DX011 (ip), vehicle: carboxymethylcellulose (CMC)",11 % of control
same,T/C,"dose: 12.0 mg/kg/injection, schedule: Q01DX011 (ip), vehicle: saline",3 % of control
[I][Hg][CH2]C1OCCOC1[CH2][Hg][I] (centres undefined),T/C,"dose: 2.5 mg/kg/injection, schedule: Q01DX011 (ip), vehicle: carboxymethylcellulose (CMC)",73 % of control
same,T/C,"dose: 5.0 mg/kg/injection, schedule: Q01DX011 (ip), vehicle: carboxymethylcellulose (CMC)",39 % of control
same,T/C,"dose: 10.0 mg/kg/injection, schedule: Q01DX011 (ip), vehicle: carboxymethylcellulose (CMC)",40 % of control
same,T/C,"dose: 11.0 mg/kg/injection, schedule: Q01DX011 (ip), vehicle: other",73 % of control
same,T/C,"dose: 16.0 mg/kg/injection, schedule: Q01DX011 (ip), vehicle: carboxymethylcellulose (CMC)",41 % of control
same,T/C,"dose: 20.0 mg/kg/injection, schedule: Q01DX011 (ip), vehicle: carboxymethylcellulose (CMC)",30 % of control
same,T/C,"dose: 22.0 mg/kg/injection, schedule: Q01DX011 (ip), vehicle: other",61 % of control
same,T/C,"dose: 32.0 mg/kg/injection, schedule: Q01DX011 (ip), vehicle: carboxymethylcellulose (CMC)",6 % of control
same,T/C,"dose: 44.0 mg/kg/injection, schedule: Q01DX011 (ip), vehicle: other",53 % of control
same,T/C,"dose: 66.0 mg/kg/injection, schedule: Q01DX011 (ip), vehicle: other",37 % of control
O=C(O)c1[nH]c(=O)[nH]c(=O)c1F,T/C,"dose: 1.5 mg/kg/injection, schedule: Q01DX011 (ip), vehicle: other",53 % of control
same,T/C,"dose: 3.0 mg/kg/injection, schedule: Q01DX011 (ip), vehicle: other",79 % of control
same,T/C,"dose: 6.0 mg/kg/injection, schedule: Q01DX011 (ip), vehicle: other",37 % of control
same,T/C,"dose: 12.0 mg/kg/injection, schedule: Q01DX011 (ip), vehicle: other",10 % of control
Cn1c(=O)c2c(nc(C(O)(c3ccccc3)c3ccccc3)n2C)n(C)c1=O,T/C,"dose: 40.0 mg/kg/injection, schedule: Q01DX011 (ip), vehicle: methylcellulose (MC)",122 % of control
same,T/C,[2],66 % of control
c1ccc2c3c(ccc2c1)Sc1ccc2ccccc2c1N3,T/C,"dose: 27.5 mg/kg/injection, schedule: Q01DX011 (ip), vehicle: methylcellulose (MC)",73 % of control
same,T/C,"dose: 27.5 mg/kg/injection, schedule: Q01DX011 (ip), vehicle: other",108 % of control
same,T/C,"dose: 55.0 mg/kg/injection, schedule: Q01DX011 (ip), vehicle: methylcellulose (MC)",76 % of control
same,T/C,"dose: 55.0 mg/kg/injection, schedule: Q01DX011 (ip), vehicle: other",115 % of control
same,T/C,"dose: 110.0 mg/kg/injection, schedule: Q01DX011 (ip), vehicle: methylcellulose (MC)",58 % of control
same,T/C,"dose: 440.0 mg/kg/injection, schedule: Q01DX011 (ip), vehicle: other",64 % of control
